Consider 15 compounds from PubChem BioAssay (NCI).

Several values for one entry are separate records, joined by “and”; a condition that tells them apart may be missing. Equal values may be shown once.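 Where inhibition never reached the appropriate level, the endpoint shown equals the highest concentration tested. Otherwise, values were interpolated linearly from a five-concentration, 48-hour dose response in 96-well plates. GI50 is the concentration that inhibits growth by half. The concentration for full growth arrest is given as TGI.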 A value given as a limit tells only on which side of the number the result lay.

What all share (test): NCI-60 cell line screen, 48 h
Assay [1] concerns OVCAR-5 ovarian.
Assay [2] has as its system XF 498 CNS.
Assay [3] concerns KM20L2 colon.
The test system of assay [4] is LXFL 529 NSCLC.
The test system of assay [5] is NCI-H460 lung.
Assay [6] deals with HOP-18 NSCLC.
The test system of assay [7] is IGROV1 ovarian.
The test system of assay [8] is T-47D breast.
Assay [9] concerns HS 578T breast.
Assay [10] deals with SK-MEL-5 melanoma.

Regarding `Cc1cc2c(C)n(Cc3ccc(Cl)cc3Cl)nc2c(C(=O)O)c1C`, the TGI in assay [1], in assay [2], in assay [3], in [4], in [5] and in [6] was greater than 100 µM throughout. The compound further gave a TGI in assay [7] greater than 100 µM.
With `CCOC(=O)c1c(C)c(C)n2c1NC(=O)C2`, the TGI was greater than 100 µM in assay [1]; 61.1 µM in assay [2]; greater than 100 µM in assay [3]; greater than 100 µM in assay [4]; greater than 100 µM in assay [5]; greater than 100 µM in [6]. Further, the TGI in assay [8] was 70.7 µM; in [9], 70 µM; in [10], greater than 100 µM; in assay [7], greater than 100 µM.
In the case of `CC1(C)OC(=O)C=C([O-])O1.CC1(C)OC(=O)C=C([O-])O1.CC[O-].CC[O-].[Ti+4]`, the GI50 in assay [1], in [3], in [4], in assay [5], in assay [6] and in assay [10] was greater than 100 µM each time. Also, the GI50 in [7] is greater than 100 µM. Also, the TGI in assay [1], in assay [3], in assay [4], in [5], in assay [6] and in [10] was greater than 100 µM each time. The TGI in assay [7] was greater than 100 µM.
For the compound `O=C1c2nc3n(c2C(=O)c2c1nc1n2CCC1)CCC3`, the TGI in assay [1] turned out to be 30.7 µM; in [2], 19.6 µM; in assay [3] it was 11.4 µM; in assay [4] it was 21.5 µM; in assay [5], 6.24 µM; in [6] it was 27.2 µM. Besides, the TGI is 3.05 µM and 2.78 µM in assay [10]; 24.5 µM in assay [7]. For the same compound, the GI50 was 3.89 µM in assay [5] and 1.68 µM in assay [10].
As for `O=C(Nc1ccn(CCI)c(=O)n1)c1ccccc1`, the TGI in assay [1], in assay [3], in assay [4], in [5], in [6] and in assay [10] was greater than 100 µM each time. In assay [7], this compound came in with a TGI greater than 100 µM.
`CC1=C(C(=O)Nc2ccc([N+](=O)[O-])cc2)C(c2ccccc2F)C(C(=O)Nc2ccc([N+](=O)[O-])cc2)=C(C)N1`: the TGI in assay [1] was greater than 100 µM; in assay [2] it was 6.94 µM; in [3], 29.8 µM; in assay [4], 59.6 µM; in [5] it was 69.7 µM; in assay [10] it was 40.6 µM. Besides, the TGI in [7] is greater than 100 µM.
As to `CCCCCCC(/C=N/O)C(C)(O)CCC` (stereo unspecified), the TGI in [1], in assay [2], in [3], in assay [4], in [5] and in [10] was greater than 100 µM each time. In addition, the TGI in assay [7] was greater than 100 µM.
Turning to `O=C(O)C1=C(C(=O)Nc2ccc(NC(=O)C3=C(C(=O)O)C4C=CC3C4)cc2)C2C=CC1C2`, the TGI in [1], in assay [2], in assay [3], in assay [4], in assay [5] and in assay [6] was greater than 100 µM each time. Besides, the TGI in [10] and in assay [7] was greater than 100 µM throughout.
For `CCOC(=O)C1=C(Nc2ccc(Cl)c(Cl)c2)OC/C1=N\NS(=O)(=O)c1ccc(C)cc1`, the TGI in assay [1], in assay [2], in assay [3], in assay [4], in [5] and in [6] was greater than 100 µM in each case. In addition, the TGI in [10] and in assay [7] was greater than 100 µM each time.
Take `COC(=O)C1=CC2OC1(C)CCC2=O` (stereo unspecified): the TGI in assay [1], in assay [2], in assay [3], in assay [4], in assay [5] and in [7] was greater than 100 µM each time.
With `O=[N+]([O-])c1ccc(Cl)cc1C1SCc2nc3ccccc3n21` (stereo unspecified), the TGI in [2] is greater than 100 µM; in [3], greater than 100 µM; in assay [4], greater than 100 µM; in assay [5], 23.4 µM; in assay [6], greater than 100 µM; in [10], 84.6 µM. For the same compound, the TGI in assay [7] is greater than 100 µM.
Regarding `Cc1ccccc1-n1c(C)nc(-c2ccccc2)cc1=O`, the TGI in assay [1], in assay [3], in assay [4], in assay [5], in assay [6] and in assay [10] was greater than 100 µM each time. Further, the TGI in [7] was greater than 100 µM.
Regarding `[Cl][Cd][Cl]`, the GI50 is > 61.9 µM and 99.2 µM in assay [1]; 23.4 µM in assay [2]; 13.3 µM in assay [4]; 1.44 µM and 4.53 µM and 1.16 µM in assay [5]; greater than 42.3 µM in assay [6]; 9.63 µM in assay [8]. Also, the GI50 was 10.1 µM in assay [9]; 1.18 µM and 3.62 µM and 0.518 µM in assay [10]; 4.32 µM and 29.7 µM and 8.4 µM in assay [7]. The TGI in assay [1] was 98.4 µM and 179 µM; in [2] it was 43.1 µM; in [4] it was 28.4 µM; in assay [5], 17.6 µM and 24.9 µM; in [6] it was greater than 62.1 µM; in assay [8] it was 19.5 µM. Moreover, the TGI was 57.4 µM in [9]; 3.31 µM and 22.4 µM and 5.9 µM in assay [10]; > 60.6 µM and 16.1 µM in assay [7].
In the case of `COC1OC2COC(c3ccccc3)OC2C(O)C1Br` (stereo unspecified), the TGI in assay [1], in assay [2], in [4], in [5], in assay [6] and in assay [10] was greater than 100 µM in each case. This compound also had a TGI in [7] greater than 100 µM.
As to `COc1ccc2c(c1OC)C(=O)c1cnccc1C2=O`, the TGI in [1], in assay [2], in assay [3], in [4], in assay [5] and in assay [6] was greater than 100 µM in each case. The TGI in assay [10] and in assay [7] was greater than 100 µM in each case.
